In US9267949B2, “Alkylamino BODIPY dyes as selective fluorescent probes for proteins and mouse embryonic stem cells” (National University of Singapore, priority 2011, dated 2016):

Columns and labels:
[1] = Spectroscopic properties of the BDM library (absorbance and emission maxima); format: physicochemical
[2] = Quantum yield measurements; format: physicochemical; details: referred to Rhodamine B in EtOH, excitation 510 nm, emission integrated 540-800 nm
Protocol: Quantum yields were calculated by measuring the integrated emission area of the fluorescent spectra, and referring them to the area measured for Rhodamine B in EtOH after excitation at 510 nm (ΦRho-B=0.70). Quantum yields for the BDM products were then calculated using equation below, where F represents the area of fluorescent emission, n is reflective index of the solvent, and Abs is absorbance at excitation wavelength selected for standards and samples. Emission was integrated from 540 nm to 800 nm.

CC1=CC(/C=C/c2ccc(I)cc2)=[N+]2C1=C(CCN)c1cccn1[B-]2(F)F [BDM-237]
λmax (ABS) [1]: 558 nm | λmax (EM) [1]: 572 nm | φ (quantum yield) [2]: 0.35

COc1ccc(F)cc1/C=C/C1=[N+]2C(=C(CCN)c3cccn3[B-]2(F)F)C(C)=C1 [BDM-239]
λmax (ABS) [1]: 559 nm | λmax (EM) [1]: 572 nm | φ (quantum yield) [2]: 0.28

CC1=CC(/C=C/c2ccccc2OC(F)F)=[N+]2C1=C(CCN)c1cccn1[B-]2(F)F [BDM-240]
λmax (ABS) [1]: 552 nm | λmax (EM) [1]: 565 nm | φ (quantum yield) [2]: 0.23

COc1c(Br)cc(Br)cc1/C=C/C1=[N+]2C(=C(CCN)c3cccn3[B-]2(F)F)C(C)=C1 [BDM-241]
λmax (ABS) [1]: 560 nm | λmax (EM) [1]: 576 nm | φ (quantum yield) [2]: 0.32

CC1=CC(/C=C/c2c(C)cccc2C)=[N+]2C1=C(CCN)c1cccn1[B-]2(F)F [BDM-243]
λmax (ABS) [1]: 543 nm | λmax (EM) [1]: 565 nm | φ (quantum yield) [2]: 0.87

COc1ccc(F)c(/C=C/C2=[N+]3C(=C(CCN)c4cccn4[B-]3(F)F)C(C)=C2)c1 [BDM-245]
λmax (ABS) [1]: 555 nm | λmax (EM) [1]: 563 nm | φ (quantum yield) [2]: 0.32

CC1=CC(/C=C/c2c(Cl)ccc(C)c2F)=[N+]2C1=C(CCN)c1cccn1[B-]2(F)F [BDM-246]
λmax (ABS) [1]: 554 nm | λmax (EM) [1]: 566 nm | φ (quantum yield) [2]: 0.17

COc1cc(OC)c(/C=C/C2=[N+]3C(=C(CCN)c4cccn4[B-]3(F)F)C(C)=C2)cc1Br [BDM-247]
λmax (ABS) [1]: 571 nm | λmax (EM) [1]: 599 nm | φ (quantum yield) [2]: 0.54

CC1=CC(/C=C/c2ccc(C)c(F)c2)=[N+]2C1=C(CCN)c1cccn1[B-]2(F)F [BDM-249]
λmax (ABS) [1]: 557 nm | λmax (EM) [1]: 568 nm | φ (quantum yield) [2]: 0.24

CCc1ccccc1/C=C/C1=[N+]2C(=C(CCN)c3cccn3[B-]2(F)F)C(C)=C1 [BDM-251]
λmax (ABS) [1]: 556 nm | λmax (EM) [1]: 572 nm | φ (quantum yield) [2]: 0.22

CCc1ccc(/C=C/C2=[N+]3C(=C(CCN)c4cccn4[B-]3(F)F)C(C)=C2)cc1[N+](=O)[O-] [BDM-252]
λmax (ABS) [1]: 556 nm | λmax (EM) [1]: 569 nm | φ (quantum yield) [2]: 0.08

COc1cc(/C=C/C2=[N+]3C(=C(CCN)c4cccn4[B-]3(F)F)C(C)=C2)cc(Br)c1OC [BDM-259]
λmax (ABS) [1]: 559 nm | λmax (EM) [1]: 573 nm | φ (quantum yield) [2]: 0.35

COc1ccc(/C=C/C2=[N+]3C(=C(CCN)c4cccn4[B-]3(F)F)C(C)=C2)cc1Br [BDM-260]
λmax (ABS) [1]: 564 nm | λmax (EM) [1]: 582 nm | φ (quantum yield) [2]: 0.05

CCCCc1ccc(/C=C/C2=[N+]3C(=C(CCN)c4cccn4[B-]3(F)F)C(C)=C2)cc1 [BDM-263]
λmax (ABS) [1]: 559 nm | λmax (EM) [1]: 571 nm | φ (quantum yield) [2]: 0.26

CC1=CC(/C=C/c2ccc(C)cc2Br)=[N+]2C1=C(CCN)c1cccn1[B-]2(F)F [BDM-267]
λmax (ABS) [1]: 558 nm | λmax (EM) [1]: 573 nm | φ (quantum yield) [2]: 0.21

COc1ccc(/C=C/C2=[N+]3C(=C(CCN)c4cccn4[B-]3(F)F)C(C)=C2)cc1Cl [BDM-274]
λmax (ABS) [1]: 562 nm | λmax (EM) [1]: 577 nm | φ (quantum yield) [2]: 0.46

COc1cc(Cl)cc(/C=C/C2=[N+]3C(=C(CCN)c4cccn4[B-]3(F)F)C(C)=C2)c1O [BDM-275]
λmax (ABS) [1]: 562 nm | φ (quantum yield) [2]: 0.05

CC1=CC(/C=C/c2ccc(Oc3ccc(Cl)cc3)cc2)=[N+]2C1=C(CCN)c1cccn1[B-]2(F)F [BDM-277]
λmax (ABS) [1]: 559 nm | λmax (EM) [1]: 574 nm | φ (quantum yield) [2]: 0.59

COc1cccc(/C=C/C2=[N+]3C(=C(CCN)c4cccn4[B-]3(F)F)C(C)=C2)c1Cl [BDM-281]
λmax (ABS) [1]: 554 nm | λmax (EM) [1]: 567 nm | φ (quantum yield) [2]: 0.28

COc1cc(Cl)cc(/C=C/C2=[N+]3C(=C(CCN)c4cccn4[B-]3(F)F)C(C)=C2)c1OC [BDM-282]
λmax (ABS) [1]: 558 nm | λmax (EM) [1]: 565 nm | φ (quantum yield) [2]: 0.19

CC1=CC(/C=C/c2cccc(O)c2Cl)=[N+]2C1=C(CCN)c1cccn1[B-]2(F)F [BDM-283]
λmax (ABS) [1]: 556 nm | λmax (EM) [1]: 567 nm | φ (quantum yield) [2]: 0.15

CC1=CC(/C=C/c2ccc(-c3cccc(Cl)c3)o2)=[N+]2C1=C(CCN)c1cccn1[B-]2(F)F [BDM-284]
λmax (ABS) [1]: 594 nm | λmax (EM) [1]: 622 nm | φ (quantum yield) [2]: 0.03

CC1=CC(/C=C/c2c(C)cccc2Cl)=[N+]2C1=C(CCN)c1cccn1[B-]2(F)F [BDM-285]
λmax (ABS) [1]: 544 nm | λmax (EM) [1]: 561 nm | φ (quantum yield) [2]: 0.51

CC1=CC(/C=C/c2ccc(C)c(Cl)c2)=[N+]2C1=C(CCN)c1cccn1[B-]2(F)F [BDM-289]
λmax (ABS) [1]: 559 nm | λmax (EM) [1]: 570 nm | φ (quantum yield) [2]: 0.26

CC1=CC(/C=C/c2ccc(Oc3cccc(Cl)c3)cc2)=[N+]2C1=C(CCN)c1cccn1[B-]2(F)F [BDM-290]
λmax (ABS) [1]: 558 nm | λmax (EM) [1]: 574 nm | φ (quantum yield) [2]: 0.36

COc1cccc(Oc2ccc(/C=C/C3=[N+]4C(=C(CCN)c5cccn5[B-]4(F)F)C(C)=C3)cc2)c1 [BDM-298]
λmax (ABS) [1]: 559 nm | λmax (EM) [1]: 568 nm | φ (quantum yield) [2]: 0.32

CC1=CC(/C=C/c2ccc(Oc3ccc(Cl)c(Cl)c3)cc2)=[N+]2C1=C(CCN)c1cccn1[B-]2(F)F [BDM-299]
λmax (ABS) [1]: 555 nm | λmax (EM) [1]: 563 nm | φ (quantum yield) [2]: 0.27

CC1=CC(/C=C/c2ccc(Oc3ccc(C)cc3)cc2)=[N+]2C1=C(CCN)c1cccn1[B-]2(F)F [BDM-300]
λmax (ABS) [1]: 562 nm | λmax (EM) [1]: 579 nm | φ (quantum yield) [2]: 0.44

COc1cc2ccccc2c(/C=C/C2=[N+]3C(=C(CCN)c4cccn4[B-]3(F)F)C(C)=C2)c1OC [BDM-301]
λmax (ABS) [1]: 563 nm | λmax (EM) [1]: 586 nm | φ (quantum yield) [2]: 0.41

CC1=CC(/C=C/c2cccc(I)c2)=[N+]2C1=C(CCN)c1cccn1[B-]2(F)F [BDM-303]
λmax (ABS) [1]: 555 nm | λmax (EM) [1]: 566 nm | φ (quantum yield) [2]: 0.31

COc1cc(F)c(/C=C/C2=[N+]3C(=C(CCN)c4cccn4[B-]3(F)F)C(C)=C2)cc1OC [BDM-305]
λmax (ABS) [1]: 567 nm | λmax (EM) [1]: 587 nm | φ (quantum yield) [2]: 0.25

COc1cc(/C=C/C2=[N+]3C(=C(CCN)c4cccn4[B-]3(F)F)C(C)=C2)cc(O)c1OC [BDM-307]
λmax (ABS) [1]: 564 nm | λmax (EM) [1]: 580 nm | φ (quantum yield) [2]: 0.07

CC1=CC(/C=C/c2ccc(Oc3cc(Cl)cc(Cl)c3)cc2)=[N+]2C1=C(CCN)c1cccn1[B-]2(F)F [BDM-308]
λmax (ABS) [1]: 556 nm | λmax (EM) [1]: 567 nm | φ (quantum yield) [2]: 0.19

COc1ccc(/C=C/C2=[N+]3C(=C(CCN)c4cccn4[B-]3(F)F)C(C)=C2)c(C)c1C [BDM-310]
λmax (ABS) [1]: 566 nm | λmax (EM) [1]: 600 nm | φ (quantum yield) [2]: 0.42

CC1=CC(/C=C/c2ccc(F)c(Oc3ccccc3)c2)=[N+]2C1=C(CCN)c1cccn1[B-]2(F)F [BDM-311]
λmax (ABS) [1]: 556 nm | λmax (EM) [1]: 565 nm | φ (quantum yield) [2]: 0.21

COc1cc(/C=C/C2=[N+]3C(=C(CCN)c4cccn4[B-]3(F)F)C(C)=C2)ccc1F [BDM-312]
λmax (ABS) [1]: 557 nm | λmax (EM) [1]: 568 nm | φ (quantum yield) [2]: 0.18

COc1ccc(/C=C/C2=[N+]3C(=C(CCN)c4cccn4[B-]3(F)F)C(C)=C2)cc1F [BDM-314]
λmax (ABS) [1]: 556 nm | λmax (EM) [1]: 570 nm | φ (quantum yield) [2]: 0.10

CCOc1ccc(/C=C/C2=[N+]3C(=C(CCN)c4cccn4[B-]3(F)F)C(C)=C2)c(OCC)c1 [BDM-316]
λmax (ABS) [1]: 572 nm | λmax (EM) [1]: 610 nm | φ (quantum yield) [2]: 0.46

CC1=CC(/C=C/c2cc(F)ccc2O)=[N+]2C1=C(CCN)c1cccn1[B-]2(F)F [BDM-318]
λmax (ABS) [1]: 563 nm | λmax (EM) [1]: 576 nm | φ (quantum yield) [2]: 0.11

CCOc1c(/C=C/C2=[N+]3C(=C(CCN)c4cccn4[B-]3(F)F)C(C)=C2)cccc1OC [BDM-320]
λmax (ABS) [1]: 558 nm | λmax (EM) [1]: 569 nm | φ (quantum yield) [2]: 0.21
